Source: PubChem BioAssay AID1918994 (Molecular Pharmacology Branch, DTP, NCI, 2023)
Where “and” joins values, the source holds several entries; their conditions need not be identical. Equal entries are not always repeated.

Test system: 292921-168-R-J2-PDC complex spheroid growth
Assay: Anticancer human tumor 292921-168-R-J2-PDC patient-derived pancreatic carcinoma cell line growth inhibition [AhR]
Conditions: for viability, T/C: stronger effect = lower value
How it was run: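 Complex tumor spheroids co-cultured with HUVEC and human MSC stroma; AhR antagonists tested in combination with standard-of-care and investigational agents. Top concentration at or near clinical Cmax (else 10 microM), half-log dilutions; growth expressed as percent test/control.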

[1] = curve of first compound, second compound 0.1 µM
[2] = curve of first compound, second compound 0.316 µM
[3] = curve of first compound, second compound 1 µM
[4] = curve of first compound, second compound 3.16 µM
[5] = curve of first compound, second compound 10 µM
[6] = second compound 0.1 µM, first compound 0.00949 µM
[7] = second compound 0.1 µM, first compound 0.03 µM
[8] = second compound 0.1 µM, first compound 0.0949 µM
[9] = second compound 0.1 µM, first compound 0.3 µM
[10] = second compound 0.1 µM, first compound 0.949 µM
[11] = second compound 0.1 µM, first compound 3 µM
[12] = second compound 0.316 µM, first compound 0.00949 µM
[13] = second compound 0.316 µM, first compound 0.03 µM
[14] = second compound 0.316 µM, first compound 0.0949 µM
[15] = second compound 0.316 µM, first compound 0.3 µM
[16] = second compound 0.316 µM, first compound 0.949 µM
[17] = second compound 0.316 µM, first compound 3 µM
[18] = second compound 1 µM, first compound 0.00949 µM
[19] = second compound 1 µM, first compound 0.03 µM
[20] = second compound 1 µM, first compound 0.0949 µM
[21] = second compound 1 µM, first compound 0.3 µM
[22] = second compound 1 µM, first compound 0.949 µM
[23] = second compound 1 µM, first compound 3 µM
[24] = second compound 3.16 µM, first compound 0.00949 µM
[25] = second compound 3.16 µM, first compound 0.03 µM
[26] = second compound 3.16 µM, first compound 0.0949 µM
[27] = second compound 3.16 µM, first compound 0.3 µM
[28] = second compound 3.16 µM, first compound 0.949 µM
[29] = second compound 3.16 µM, first compound 3 µM
[30] = second compound 10 µM, first compound 0.00949 µM
[31] = second compound 10 µM, first compound 0.03 µM
[32] = second compound 10 µM, first compound 0.0949 µM
[33] = second compound 10 µM, first compound 0.3 µM
[34] = second compound 10 µM, first compound 0.949 µM
[35] = second compound 10 µM, first compound 3 µM
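Note: spheroids exposed to compounds for seven days after three days of growth.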

SMILES: O=C(C=Cn1cnc(-c2cc(C(F)(F)F)cc(C(F)(F)F)c2)n1)NNc1cnccn1 + Cc1ccccc1N=Nc1ccc(NC(=O)c2ccnn2C)c(C)c1
- IC50 [1]: 194 nM
- IC50 [2]: 126 nM
- IC50 [3]: 115 nM
- IC50 [4]: 76.4 nM
- IC50 [5]: 29.1 nM
- viability, T/C [6]: 88.1%
- viability, T/C [7]: 84.6%
- viability, T/C [8]: 75.5%
- viability, T/C [9]: 34.5%
- viability, T/C [10]: 16%
- viability, T/C [11]: 12%
- viability, T/C [12]: 95.8%
- viability, T/C [13]: 77.9%
- viability, T/C [14]: 58.1%
- viability, T/C [15]: 31%
- viability, T/C [16]: 14.9%
- viability, T/C [17]: 9.51%
- viability, T/C [18]: 78.1%
- viability, T/C [19]: 61.8%
- viability, T/C [20]: 57.9%
- viability, T/C [21]: 30.6%
- viability, T/C [22]: 13%
- viability, T/C [23]: 9.8%
- viability, T/C [24]: 79.2%
- viability, T/C [25]: 64%
- viability, T/C [26]: 48.2%
- viability, T/C [27]: 26.4%
- viability, T/C [28]: 15.2%
- viability, T/C [29]: 8.58%
- viability, T/C [30]: 59.8%
- viability, T/C [31]: 50.8%
- viability, T/C [32]: 37.1%
- viability, T/C [33]: 29.1%
- viability, T/C [34]: 18%
- viability, T/C [35]: 9.82%

SMILES: Nc1ncn(C2CC(O)C(CO)S2)c(=O)n1 (centres undefined)
- viability, T/C (compound 0.000949 µM): 108% and 106% and 99.4%
- viability, T/C (compound 0.003 µM): 111% and 90.8% and 101%
- viability, T/C (compound 0.00949 µM): 107% and 98.6% and 93.5%
- viability, T/C (compound 0.03 µM): 90.9% and 104% and 96.8%
- viability, T/C (compound 0.0949 µM): 90.8% and 93.8% and 95.5%
- viability, T/C (compound 0.3 µM): 88.6% and 81.2% and 78.3%
- IC50 (curve of compound): > 300 nM

SMILES: CCN(c1cc(-c2ccc(CN3CCOCC3)cc2)cc(C(=O)NCc2c(C)cc(C)[nH]c2=O)c1C)C1CCOCC1
- viability, T/C (compound 0.00949 µM): 98.8% and 103% and 105%
- viability, T/C (compound 0.03 µM): 106% and 107% and 104%
- viability, T/C (compound 0.0949 µM): 109% and 96.8% and 96.2%
- viability, T/C (compound 0.3 µM): 100% and 97.3% and 98.5%
- viability, T/C (compound 0.949 µM): 99.8% and 89.8% and 102%
- viability, T/C (compound 3 µM): 93.2% and 91% and 90.2%
- IC50 (curve of compound): > 3000 nM

SMILES: O=C(C=Cn1cnc(-c2cc(C(F)(F)F)cc(C(F)(F)F)c2)n1)NNc1cnccn1 + Cc1cncc(-c2nc(NCCc3c[nH]c4ccccc34)c3ncn(C(C)C)c3n2)c1
- IC50 [1]: 179 nM
- IC50 [2]: 165 nM
- IC50 [3]: 194 nM
- IC50 [4]: 108 nM
- IC50 [5]: 107 nM
- viability, T/C [6]: 90.8%
- viability, T/C [7]: 85.3%
- viability, T/C [8]: 62.6%
- viability, T/C [9]: 39.1%
- viability, T/C [10]: 23%
- viability, T/C [11]: 15.2%
- viability, T/C [12]: 91.9%
- viability, T/C [13]: 86.2%
- viability, T/C [14]: 62.1%
- viability, T/C [15]: 36.2%
- viability, T/C [16]: 21.2%
- viability, T/C [17]: 16.2%
- viability, T/C [18]: 91%
- viability, T/C [19]: 80.2%
- viability, T/C [20]: 62.4%
- viability, T/C [21]: 42.5%
- viability, T/C [22]: 24.6%
- viability, T/C [23]: 13.1%
- viability, T/C [24]: 83.6%
- viability, T/C [25]: 71%
- viability, T/C [26]: 51.5%
- viability, T/C [27]: 35.2%
- viability, T/C [28]: 21.9%
- viability, T/C [29]: 18.9%
- viability, T/C [30]: 54.4%
- viability, T/C [31]: 58.1%
- viability, T/C [32]: 51.2%
- viability, T/C [33]: 38.7%
- viability, T/C [34]: 35.5%
- viability, T/C [35]: 29.1%
